Values quoted from earlier work in US20090221604A1, “Thiazole Compounds and Their Use as PGD2 Antagonists” (priority 2005, published 2009).

Columns and labels:
[1] = system: asthma model in the guinea pig
[2] = system: allergic conjunctivitis model
guinea pig = details: after oral dosing

**Q.** Which results are given for `CC1(C)[C@H]2C[C@H](C/C=C\CCCC(=O)O)[C@@H](NC(=O)c3csc4ccc(O)cc34)[C@@H]1C2` [Example S-5751]?
**A.** antigen-induced eosinophil infiltration into the lung [1]: alleviated; allergen-induced plasma exudation in the conjunctiva [2]: alleviated; early (sneezing, mucosal plasma exudation, nasal blockage) and late (eosinophil infiltration) phase nasal responses (guinea pig): inhibited
